Tested on: μpatterned hiPSC-CMs
Assay: traction force microscopy of moving microbeads under beating μpatterned hiPSC-CMs
Format: cell-based, human
Experimental: We cultured single hiPSC-CMs on Matrigel micropatterns, which were transferred from printed glass coverslips onto the surface of polyacrylamide hydrogels with a stiffness of 10 kPa as previously described. (Ribeiro 2015a) In summary, Matrigel was diluted 1:10 in L15 medium (Thermo Fisher) and added to the top of elastomeric microstamps composed of polydimethylsiloxane 182 (Dow Corning) to be incubated at 3-4° C. overnight. Microstamps consisted of 2000 μm^2 rectangular features with an aspect ratio of 7:1 (length:width). We gently aspirated Matrigel after the overnight incubation, washed the stamps twice in L15 medium, aspirated L15 medium from the surface and dried it with a low stream of N2 gas. We then used microstamps to micropattern the Matrigel rectangular features on clean glass coverslips by microcontact printing. Matrigel on micropatterns was transferred to the surface of the polyacrylamide substrates during the gelation process by placing the patterned coverslip in contact with the top of the acrylamide prepolymer solution right before gelation. The aqueous prepolymer solution to be gelled was composed of acrylamide (Sigma-Aldrich)(10% w/v), bisacrylamide (Sigma-Aldrich) (0.1% w/v), ammonium persulfate (Sigma-Aldrich) (0.01% w/v) and N,N,N′,N′-tetramethylethylenediamine (Sigma-Aldrich) (0.1% v/v), HEPES (Thermo Fisher) (35 mM) and Milli-Q water. To calculate the forces generated by cells attached to polyacrylamide surfaces with traction force microscopy, green fluorescent microbeads with a diameter of 0.2 μm (Thermo Fisher) were also dispersed in the gel solution to yield a final concentration of 6.25×10^9 microbeads/mL. We gelled acrylamide on top of another coverslip functionalized with 3-(trimethoxysilyl)propyl methacrylate (Sigma-Aldrich), which binds polyacrylamide. […] Once polymerized, polyacrylamide substrates were incubated in PBS for at least 2 hours and the top coverslips were carefully removed with a razor blade. We seeded hiPSC-CMs on these polyacrylamide hydrogel substrates after washing them 3 times with PBS.
We passaged hiPSC-CMs onto micropatterned polyacrylamide devices at a density of 1000 cells/cm^2. For this purpose, cultures of thawed cells were washed twice with PBS and incubated in 1 mL of Accutase for 8-10 min. After observing cell detachment from the bottom of the wells, we quenched Accutase with Dulbecco's modified Eagle's medium (Thermo Fisher) containing 12% fetal bovine serum and counted the concentration of cells in medium with a hemocytometer. Then, we centrifuged cells at 83 rcf for 3 min at room temperature and aspirated the supernatant to resuspend the pelleted cells in the required volume of medium (RPMI-1640 cell-culture medium with 5 μM ROCK inhibitor) for adding 150 μL of cell solution to the surface of hydrogel devices at a concentration of 1000 cells/cm^2. After 1.5 h of incubation, we added 2.5 mL of medium to the well containing hydrogel devices and added fresh medium without ROCK inhibitor after 2 days. Single beating cells on Matrigel patterns were analyzed between 5-10 days after seeding.
We imaged the movement of beating hiPSC-CMs and the displacement of fluorescent microbeads embedded in polyacrylamide substrates with a Zeiss Axiovert 200M inverted microscope equipped with a Zeiss Axiocam MRm CCD camera. This microscope also contained an environmental chamber (PeCon) to set temperature at 37° C. Unless otherwise noted, we acquired microscopy videos while electrically pacing hiPSC-CMs with 10 ms-wide bipolar pulses of electric-field stimulation at 10-15 V with a frequency of 1 Hz (Myopacer, lonOptix).
To induce contractile changes in hiPSC-CMs, we added drugs known to affect CM contractile machinery to the culture medium. We analyzed the mechanical output of cells after adding drugs. […]

[1] = extracellular caffeine slowly increased up to 10 μM (FIG. 3C)

Cn1c(=O)c2c(ncn2C)n(C)c1=O [caffeine]
kinetics of relaxation right after adding caffeine [1]: sudden decrease | mechanical output right after adding caffeine [1]: sudden increase | t̂ (time between peak velocity of contraction and peak velocity of relaxation) (low doses of caffeine slowly diffused through the culture media, single cell (FIG. 3B)): increase | magnitude of the contractions that followed and kinetics of relaxation (with increasing caffeine extracellular concentration (FIG. 3)): considerably decreased

From patent publication US20180106782A1, “HIGH THROUGHPUT CARDIOTOXICITY SCREENING PLATFORM” (The Board of Trustees of the Leland Stanford Junior …, priority 2016, published 2018)
